pIC50: −log10 of the molar value. ≈ marks a conversion by molar mass, not a printed value. Calls of active or inactive are those of the source. The rule behind the calls is not given here.

The target of series [1] is T1, Peroxisome proliferator-activated receptor alpha (Homo sapiens) (UniProt Q07869).
T1 sequence (whole entry): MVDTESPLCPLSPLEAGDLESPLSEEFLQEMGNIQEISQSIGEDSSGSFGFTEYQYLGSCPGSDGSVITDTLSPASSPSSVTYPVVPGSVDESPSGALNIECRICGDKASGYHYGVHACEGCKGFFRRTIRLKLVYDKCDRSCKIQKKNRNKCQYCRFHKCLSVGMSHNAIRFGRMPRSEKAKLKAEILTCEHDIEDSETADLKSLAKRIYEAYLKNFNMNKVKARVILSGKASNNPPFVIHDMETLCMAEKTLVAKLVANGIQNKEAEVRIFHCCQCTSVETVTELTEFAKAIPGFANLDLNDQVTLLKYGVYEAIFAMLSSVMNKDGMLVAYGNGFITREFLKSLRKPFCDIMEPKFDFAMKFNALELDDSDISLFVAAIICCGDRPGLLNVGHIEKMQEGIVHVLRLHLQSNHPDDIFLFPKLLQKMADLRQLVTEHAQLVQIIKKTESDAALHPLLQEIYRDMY
Kind of series: Agonist activity at PPARalpha at 1 uM. In kind it is functional.

Series [2] in a line: Aqueous solubility of the compound in water.
The target in series [3] is T2, Integrin alpha-V/beta-3 (Homo sapiens, UniProt P05106+P06756). Description: Antagonist activity at alphavbeta3 integrin receptor. It counts as functional.
T2 sequence (P05106 27-788 limits assumed): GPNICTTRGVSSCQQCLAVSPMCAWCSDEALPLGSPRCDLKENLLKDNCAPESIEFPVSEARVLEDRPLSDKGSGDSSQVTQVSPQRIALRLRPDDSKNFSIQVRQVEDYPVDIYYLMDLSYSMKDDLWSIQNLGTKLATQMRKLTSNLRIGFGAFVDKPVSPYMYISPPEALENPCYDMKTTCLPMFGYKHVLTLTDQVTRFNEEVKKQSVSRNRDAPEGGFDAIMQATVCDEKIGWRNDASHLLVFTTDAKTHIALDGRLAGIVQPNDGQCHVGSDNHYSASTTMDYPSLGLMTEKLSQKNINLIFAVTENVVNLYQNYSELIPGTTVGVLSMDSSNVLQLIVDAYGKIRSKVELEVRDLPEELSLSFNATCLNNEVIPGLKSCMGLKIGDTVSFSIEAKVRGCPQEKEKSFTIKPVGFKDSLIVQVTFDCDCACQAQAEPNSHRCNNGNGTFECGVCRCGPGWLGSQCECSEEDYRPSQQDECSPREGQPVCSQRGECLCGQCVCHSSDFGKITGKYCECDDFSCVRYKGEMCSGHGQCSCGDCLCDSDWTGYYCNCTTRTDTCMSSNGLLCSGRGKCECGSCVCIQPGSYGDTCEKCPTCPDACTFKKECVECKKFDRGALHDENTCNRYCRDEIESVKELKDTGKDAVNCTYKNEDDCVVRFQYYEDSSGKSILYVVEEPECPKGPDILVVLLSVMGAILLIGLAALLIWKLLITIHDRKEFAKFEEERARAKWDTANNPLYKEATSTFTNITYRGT
T2 sequence (P06756 31-889 limits assumed): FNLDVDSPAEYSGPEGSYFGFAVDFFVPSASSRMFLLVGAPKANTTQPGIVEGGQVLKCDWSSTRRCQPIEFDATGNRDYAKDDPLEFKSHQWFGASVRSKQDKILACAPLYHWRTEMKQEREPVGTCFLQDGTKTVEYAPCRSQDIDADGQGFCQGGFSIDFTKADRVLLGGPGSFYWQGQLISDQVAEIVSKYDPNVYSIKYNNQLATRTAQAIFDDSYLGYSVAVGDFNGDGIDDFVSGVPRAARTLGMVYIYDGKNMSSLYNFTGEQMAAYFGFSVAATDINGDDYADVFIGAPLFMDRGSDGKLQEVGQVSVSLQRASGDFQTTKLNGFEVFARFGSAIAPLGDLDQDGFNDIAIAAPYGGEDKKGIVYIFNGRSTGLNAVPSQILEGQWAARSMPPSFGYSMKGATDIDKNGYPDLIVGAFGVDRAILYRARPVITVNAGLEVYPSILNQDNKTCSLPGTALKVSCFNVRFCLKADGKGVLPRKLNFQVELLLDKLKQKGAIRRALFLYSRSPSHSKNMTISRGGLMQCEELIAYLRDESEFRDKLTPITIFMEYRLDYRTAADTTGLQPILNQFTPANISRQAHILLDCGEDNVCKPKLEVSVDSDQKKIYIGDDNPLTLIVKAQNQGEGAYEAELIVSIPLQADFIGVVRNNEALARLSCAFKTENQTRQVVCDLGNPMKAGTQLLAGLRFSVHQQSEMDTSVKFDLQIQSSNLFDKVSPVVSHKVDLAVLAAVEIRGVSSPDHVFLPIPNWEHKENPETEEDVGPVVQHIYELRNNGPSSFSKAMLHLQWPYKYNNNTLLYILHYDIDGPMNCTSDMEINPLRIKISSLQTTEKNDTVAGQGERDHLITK
T2 sequence (P06756 891-1048 limits assumed): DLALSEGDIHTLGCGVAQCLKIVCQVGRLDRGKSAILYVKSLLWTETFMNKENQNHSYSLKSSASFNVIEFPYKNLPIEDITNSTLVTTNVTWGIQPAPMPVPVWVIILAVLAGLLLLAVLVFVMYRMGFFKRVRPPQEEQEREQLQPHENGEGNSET
Series [4] has as its target Integrin alpha-IIb/beta-3 (Homo sapiens, UniProt P05106+P08514). Kind of series: Antagonist activity at alpha2bbeta3 integrin receptor. In kind it is functional.
Series [5] has as its target T2, Integrin alpha-V/beta-3. Kind of series: Antagonist activity at alphavbeta3 integrin receptor human VSMC assessed as inhibition of vitronectin-induced cell adhesion. It counts as functional, cell-based.
A short description of series [6]: Antiplatelet activity in human platelet rich plasma assessed as inhibition of platelet aggregation. It counts as functional.
The nature of series [7]: Aqueous solubility of the compound. In kind it is physicochemical. As to conditions: buffer.
Series [8] in a line: Aqueous solubility of the compound at pH 7.4. In kind it is physicochemical. The note with it: buffer.
The target of series [9] is Macrophage metalloelastase (Homo sapiens, UniProt P39900). Description: Inhibition of MMP12.
Chain of Macrophage metalloelastase (P39900 whole entry): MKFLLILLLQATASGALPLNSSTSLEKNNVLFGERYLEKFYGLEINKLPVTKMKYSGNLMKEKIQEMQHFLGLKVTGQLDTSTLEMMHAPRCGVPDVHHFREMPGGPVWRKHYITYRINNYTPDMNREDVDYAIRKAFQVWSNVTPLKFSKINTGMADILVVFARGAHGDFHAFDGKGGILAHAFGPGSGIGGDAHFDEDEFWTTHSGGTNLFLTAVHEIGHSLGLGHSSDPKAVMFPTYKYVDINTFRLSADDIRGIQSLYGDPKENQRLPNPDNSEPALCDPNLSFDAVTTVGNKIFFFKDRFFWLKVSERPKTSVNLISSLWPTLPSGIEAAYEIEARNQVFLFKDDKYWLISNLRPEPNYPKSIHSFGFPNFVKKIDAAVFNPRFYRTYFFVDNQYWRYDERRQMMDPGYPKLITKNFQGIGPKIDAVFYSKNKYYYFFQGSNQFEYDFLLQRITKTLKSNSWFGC
The nature of series [10]: Inhibition of Escherichia coli H560 DNA gyrase mediated DNA cleavage.
The nature of series [11]: Oral bioavailability in rat. The note with it: in vivo.

Chain of Integrin alpha-IIb/beta-3 (P05106 27-788 limits assumed): as the sequence (P05106 27-788 limits assumed) above
Chain of Integrin alpha-IIb/beta-3 (P08514 32-887 limits assumed): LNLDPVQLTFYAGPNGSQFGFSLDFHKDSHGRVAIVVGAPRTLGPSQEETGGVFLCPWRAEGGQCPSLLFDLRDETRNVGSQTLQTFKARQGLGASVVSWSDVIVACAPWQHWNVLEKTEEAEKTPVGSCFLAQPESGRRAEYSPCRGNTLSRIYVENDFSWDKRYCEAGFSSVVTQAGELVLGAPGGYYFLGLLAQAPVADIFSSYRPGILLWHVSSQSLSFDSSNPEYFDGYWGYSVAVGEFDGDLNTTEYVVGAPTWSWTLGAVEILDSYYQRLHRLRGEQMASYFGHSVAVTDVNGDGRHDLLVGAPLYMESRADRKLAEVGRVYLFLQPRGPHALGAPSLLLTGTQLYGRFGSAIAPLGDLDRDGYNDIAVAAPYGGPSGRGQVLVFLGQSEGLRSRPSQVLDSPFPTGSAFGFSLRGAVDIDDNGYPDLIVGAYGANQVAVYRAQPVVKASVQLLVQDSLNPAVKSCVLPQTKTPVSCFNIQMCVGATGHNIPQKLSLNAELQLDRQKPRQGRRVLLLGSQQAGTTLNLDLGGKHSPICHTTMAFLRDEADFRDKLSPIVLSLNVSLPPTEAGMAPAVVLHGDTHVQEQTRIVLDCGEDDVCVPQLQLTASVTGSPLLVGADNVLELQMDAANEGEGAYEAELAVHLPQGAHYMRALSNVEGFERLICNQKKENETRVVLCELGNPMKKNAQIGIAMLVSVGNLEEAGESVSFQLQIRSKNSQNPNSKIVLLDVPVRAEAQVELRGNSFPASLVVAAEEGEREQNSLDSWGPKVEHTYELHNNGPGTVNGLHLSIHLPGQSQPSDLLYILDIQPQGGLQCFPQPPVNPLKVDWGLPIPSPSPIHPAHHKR
Chain of Integrin alpha-IIb/beta-3 (P08514 891-1039 limits assumed): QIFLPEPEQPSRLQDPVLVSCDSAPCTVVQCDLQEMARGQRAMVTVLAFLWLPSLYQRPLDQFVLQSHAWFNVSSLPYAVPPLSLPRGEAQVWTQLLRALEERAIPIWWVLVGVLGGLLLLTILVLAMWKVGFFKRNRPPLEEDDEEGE

Turning to `CCCCOc1ccc(-c2ccc(C(=O)O)cc2F)cc1CNC(=O)c1ccc(C(F)(F)F)cc1F`, the outcome in series [1] was inactive.

Regarding `CCCCOc1ccc(-c2ccc(C(=O)O)cc2)cc1CNC(=O)c1ccc(C(F)(F)F)cc1F`, the outcome in [1] was inactive.

As usually defined, the solubility is the dissolved amount per volume that the medium holds. Low readings indicate little dissolved substance, high ones much dissolved substance. Turning to `Clc1ccc(-c2ccccc2Cl)cc1`, the solubility in series [2] (water) turned out to be 637 µg/mL (≈ 2860 µM).

The term pIC50 denotes the IC50 on a negative log10 scale, so that one unit is a factor of ten. For `O=C(NC[C@H](NS(=O)(=O)c1cccs1)C(=O)O)c1ccc(N2CCC[C@H](NC3=NCCCN3)C2)cc1`, the solubility in series [2] (water) is 3300 µg/mL (≈ 6170 µM). For the same molecule, the negative logarithm of the IC50 (pIC50) is 9.60 against Integrin alpha-V/beta-3 [3], 9.40 in [4], 7.28 on Integrin alpha-V/beta-3 [5] and 7.00 in series [6].

With `O=c1cc(-c2ccccc2)oc2ccc3ccccc3c12` [BETA-NAPHTHOFLAVONE], the solubility in [7] is less than 0.15 µg/mL.

The molecule `O=C(NC[C@H](NS(=O)(=O)c1ccccc1)C(=O)O)c1ccc(N2CCC[C@H](N=C3NCCCN3)C2)cc1` came in with a solubility in series [2] (buffer) of 3500 µg/mL (≈ 6620 µM). Moreover, the pIC50 at Integrin alpha-V/beta-3 [3] was 9.32; in series [4] it was 9.25; on Integrin alpha-V/beta-3 [5], 7.51; in [6] it was 7.08.

In the case of `CC(c1ccncc1)n1[nH]c(=O)c2[nH]c3cc(Cl)ccc3c(=O)c2c1=O.CS(=O)(=O)O` (stereo not drawn), in [8], the solubility was greater than 290 µg/mL.

Regarding `O=C(NC[C@H](NS(=O)(=O)c1ccccc1)C(=O)O)c1ccc(N2CCC(NC3=NCCCN3)CC2)c(Cl)c1`, the pIC50 against Integrin alpha-V/beta-3 [3] is 9.77; in [4], 10.64; on Integrin alpha-V/beta-3 [5], 7.14; in [6] it was 7.05.

Consider `O=C(O)c1ccc(S(=O)(=O)N[C@@H](CNC(=O)c2ccc(N3CCC(NC4=NCCCN4)CC3)c(F)c2)C(=O)O)cc1`, for which the pIC50 against Integrin alpha-V/beta-3 [3] is 9.11; in series [4], 8.92; at Integrin alpha-V/beta-3 [5] it was 6.18; in series [6] it was 6.03.

For `O=C(NC[C@H](NS(=O)(=O)c1ccccc1)C(=O)O)c1ccc(N2CCC(NC3=NCCCN3)CC2)c(O)c1`, the pIC50 against Integrin alpha-V/beta-3 [3] is 9.36; in series [4], 9.01; on Integrin alpha-V/beta-3 [5], 6.28; in [6] it was 6.77.

With `COc1cc(C(=O)NC[C@H](NS(=O)(=O)c2ccccc2)C(=O)O)ccc1N1CCC(NC2=NCCCN2)CC1`, the pIC50 was 9.36 in series [4], 6.96 at Integrin alpha-V/beta-3 [5] and 6.89 in series [6].

Turning to `CCCCOc1ccc(-c2ccc(C(=O)O)cc2C)cc1CNC(=O)c1ccc(C(F)(F)F)cc1F`, the outcome in [1] was inactive.

With `O=C(O)Cc1ccc(CNC(=O)c2cc(-c3ccc(-c4ccccc4O)cc3)cs2)cc1`, in series [7], the solubility is 134 µg/mL (≈ 302 µM). In series [9], the negative-log IC50 (pIC50) was 7.05.

The molecule `O=C(NC[C@H](NS(=O)(=O)c1ccc(O)cc1)C(=O)O)c1ccc(N2CCC(NC3=NCCCN3)CC2)c(F)c1` returned a solubility in series [2] (water) of 100 µg/mL (≈ 178 µM). For the same molecule, the pIC50 at Integrin alpha-V/beta-3 [3] is 9.85; in series [4], 9.74; on Integrin alpha-V/beta-3 [5], 7.28; in series [6] it was 6.64.

As to `O=C(NC[C@H](NS(=O)(=O)c1ccccc1)C(=O)O)c1ccc(N2CCC[C@H](NC3=NCCCN3)C2)cc1F`, the concentration in solution in [2] (water) (solubility) came to 2800 µg/mL (≈ 5120 µM). The negative logarithm of the IC50 (pIC50) is 9.64 against Integrin alpha-V/beta-3 [3], 9.11 in series [4], 7.80 on Integrin alpha-V/beta-3 [5] and 6.54 in [6].

One may read the IC50 as the point on the concentration scale where inhibition reaches its midpoint. High values mean a need for much substance, low ones inhibition by little substance. Turning to `Cc1c(N2CC[C@H](N)C2)c(F)cn2c(=O)c(C(=O)O)cc(C3CC3)c12` [ABT-719], the IC50 in [10] worked out at 0.03 µg/mL (≈ 0.0869 µM).

Broadly, the bioavailability is the share of a dose that reaches the circulation, judged against a reference dose that is usually intravenous. In series [11], `CS(=O)(=O)O.O=c1c2ccc(Cl)cc2[nH]c2c(O)nn(Cc3ccncc3)c(=O)c12` came in with a bioavailability of 5%.

`O=C(O)Cc1ccc(CNC(=O)c2cc(-c3ccc(-c4ccccc4)cc3)cs2)cc1` had a solubility in [7] of less than 1 µg/mL. Also, the pIC50 in series [9] was 7.15.

In turn, `O=C(NC[C@H](NS(=O)(=O)c1ccccc1)C(=O)O)c1ccc(N2CCC(NC3=NCCCN3)CC2)cc1` had a solubility in series [2] (water) of less than 100 µg/mL. Moreover, the pIC50 against Integrin alpha-V/beta-3 [3] was 8.89; in series [4] it was 8.52; on Integrin alpha-V/beta-3 [5], 6.72; in series [6], 6.54.

`O=C(NC[C@H](NS(=O)(=O)c1ccc(O)cc1)C(=O)O)c1ccc(N2CCC(NC3=NCCCN3)CC2)c(O)c1`: the negative-log IC50 (pIC50) at Integrin alpha-V/beta-3 [3] was 9.52; in [4], 9.03; on Integrin alpha-V/beta-3 [5], 6.41; in [6], 6.29.

Consider `O=C(NC[C@H](NS(=O)(=O)c1ccccc1)C(=O)O)c1ccc(N2CCC(NC3=NCCCN3)CC2)c(F)c1`, for which the solubility in [2] (buffer) was 600 µg/mL (≈ 1100 µM). Further, the pIC50 against Integrin alpha-V/beta-3 [3] is 9.44; in [4] it was 9.68; at Integrin alpha-V/beta-3 [5], 7.32; in [6], 7.43.

Turning to `CCCCOc1ccc(-c2c(F)ccc(C(=O)O)c2F)cc1CNC(=O)c1ccc(C(F)(F)F)cc1F`, the result in series [1] was inactive.

For `O=C(O)c1cc(C2CC2)c2cc(N3CCNCC3)c(F)cn2c1=O`, in series [10], the IC50 is 0.15 µg/mL (≈ 0.453 µM).
